In patent US12441733B2, “Substituted 2,4-dioxotetrahydropyrimidines as intermediates in the synthesis of bruton's tyrosine kinase inhibitors” (Novartis AG, priority 2018, dated 2025):

Tested on: OCI-LY3 cells
Test: Resazurin cell viability (proliferation) assay in OCI-LY3 DLBCL cells
Format: cell-based
Settings: Homo sapiens, OCI-LY3 cells (BTK independent), 72 h, 50% growth inhibition vs vehicle, read-out: OCI-LY3 Prol GI50
Outline: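 Cells were seeded at 1×10^4 per well and dosed 3 h later: 8-point 1:4 dilutions from 10 μM (OCI-LY3), in triplicate, 72 h at 37 °C. Resazurin (13 μg/ml final) was added for the last 2 h and fluorescence read at 530/600 nm. GI50 is relative to DMSO vehicle, typically from ≥2 independent experiments.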

SMILES | GI50 [µM]
COc1ccc(C(=O)NCCN2CCOC3(CCN(Cc4ccc(-c5cc6c(-c7cc(F)cc(NC(=O)c8ccc(C(C)(C)O)cc8F)c7C)ncnc6[nH]5)cc4)CC3)C2)cc1N1CCC(=O)NC1=O [Compound 39, N-(3-(6-(4-((4-(2-(3-(2,4-dioxotetrahydropyrimidin-1(2H)-yl)-4-methoxybenzamido)ethyl)-1-oxa-4,9-diazaspiro[5.5]undecan-9-yl)methyl)phenyl)-7H-pyrrolo[2,3-d]pyrimidin-4-yl)-5-fluoro-2-methylphenyl)-2-fluoro-4-(2-hydroxypropan-2-yl)benzamide] | 7.16
COc1ccc(C(=O)N2CCN(CCCCNCc3ccc(-c4cc5c(-c6cc(F)cc(NC(=O)c7ccc(C(C)(C)O)cc7F)c6C)ncnc5[nH]4)cc3)CC2)cc1N1CCC(=O)NC1=O [Compound 40, N-(3-(6-(4-(((4-(4-(3-(2,4-dioxotetrahydropyrimidin-1(2H)-yl)-4-methoxybenzoyl)piperazin-1-yl)butyl)amino)methyl)phenyl)-7H-pyrrolo[2,3-d]pyrimidin-4-yl)-5-fluoro-2-methylphenyl)-2-fluoro-4-(2-hydroxypropan-2-yl)benzamide] | > 10
COc1ccc(C(=O)N2CCC3(CCN(CCc4ccc(-c5cc6c(-c7cc(F)cc(NC(=O)c8ccc(C(C)(C)O)cc8F)c7C)ncnc6[nH]5)cc4)CC3)CC2)cc1N1CCC(=O)NC1=O [Compound 31, N-(3-(6-(4-(2-(9-(3-(2,4-Dioxotetrahydropyrimidin-1(2H)-yl)-4-methoxybenzoyl)-3,9-diazaspiro[5.5]undecan-3-yl)ethyl)phenyl)-7H-pyrrolo[2,3-d]pyrimidin-4-yl)-5-fluoro-2-methylphenyl)-2-fluoro-4-(2-hydroxypropan-2-yl)benzamide] | 5.64
Cc1c(NC(=O)c2ccc(C(C)(C)O)cc2F)cc(F)cc1-c1ncnc2[nH]c(-c3ccc(CN4CCC5(CC4)CCN(C(=O)c4ccc(F)c(N6CCC(=O)NC6=O)c4)CC5)cc3)cc12 [Compound 14, N-(3-(6-(4-((9-(3-(2,4-Dioxotetrahydropyrimidin-1(2H)-yl)-4-fluorobenzoyl)-3,9-diazaspiro[5.5]undecan-3-yl)methyl)phenyl)-7H-pyrrolo[2.3-d]pyrimidin-4-yl)-5-fluoro-2-methylphenyl)-2-fluoro-4-(2-hydroxypropan-2-yl)benzamide] | 5.98

The next compounds have a lower GI50 than those just listed; values first:

GI50 [µM] | SMILES
4.58 | Cc1c(NC(=O)c2ccc(C(C)(C)O)cc2F)cc(F)cc1-c1ncnc2[nH]c(-c3ccc(CCN4CCC5(CC4)CCN(C(=O)c4ccc(F)c(N6CCC(=O)NC6=O)c4)CC5)cc3)cc12 [Compound 47, N-(3-(6-(4-(2-(9-(3-(2,4-dioxotetrahydropyrimidin-1(2H)-yl)-4-fluorobenzoyl)-3,9-diazaspiro[5.5]undecan-3-yl)ethyl)phenyl)-7H-pyrrolo[2,3-d]pyrimidin-4-yl)-5-fluoro-2-methylphenyl)-2-fluoro-4-(2-hydroxypropan-2-yl)benzamide]
4.46 | COc1ccc(C(=O)N2CCC(CN3CCC(Oc4ccc(-c5cc6c(-c7cc(F)cc(NC(=O)c8ccc(C(C)(C)O)cc8F)c7C)ncnc6[nH]5)cc4)CC3)CC2)cc1N1CCC(=O)NC1=O [Compound 19, N-(3-(6-(4-((1-((1-(3-(2,4-Dioxotetrahydropyrimidin-1(2H)-yl)-4-methoxybenzoyl)piperidin-4-yl)methyl)piperidin-4-yl)oxyl)phenyl)-7H-pyrrolo[2,3-d]pyrimidin-4-yl)-5-fluoro-2-methylphenyl)-2-fluoro-4-(2-hydroxypropan-2-yl)benzamide]
